Results published in patent US12622915B2, “Methods of treating PDE IV-mediated diseases or conditions” (Vanda Pharmaceuticals Inc., priority 2020, dated 2026).

Columns and labels:
Phosphodiesterase PDE7A = target: T1, Phosphodiesterase PDE7A (Homo sapiens, UniProt Q13946); assay: Phosphodiesterase PDE7A enzyme assay; type: biochemical; details: N=2, Example 3
T1 construct: host or cells: insect Sf9 cells
Source text: (§1) Reference standards are run as an integral part of each assay to ensure the validity of the results obtained. Reference Compounds: • Phosphodiesterase PDE10A2 Papaverine • Phosphodiesterase PDE11A4 Dipyridamole • Phosphodiesterase PDE1A MMPX • Phosphodiesterase PDE2A EHNA • Phosphodiesterase PDE3A Cilostamide • Phosphodiesterase PDE4A1A Rolipram • Phosphodiesterase PDE4B1 Rolipram • Phosphodiesterase PDE5A Zaprinast • Phosphodiesterase PDE6 Zaprinast • Phosphodiesterase PDE7A IBMX • Phosphodiesterase PDE7B IBMX • Phosphodiesterase PDE8A1 Dipyridamole • Phosphodiesterase PDE9A2 Zaprinast
(§2) Phosphodiesterase PDE4A1A; Phosphodiesterase PDE4B1; Phosphodiesterase PDE10A2; Phosphodiesterase PDE11A4; Phosphodiesterase PDE2A; Phosphodiesterase PDE3A; Phosphodiesterase PDE7A; Phosphodiesterase PDE7B; and Phosphodiesterase PDE8A1: • Source: Human recombinant insect Sf9 cells • Substrate: 0.10 μM FAM-cAMP • Vehicle: 1.00% DMSO • Significance Crit.: ≥50% of max stimulation or inhibition • Incubation Buffer: 10 mM Tris-HCl, pH 7.2, 10 mM MgCl2, 0.05% NaN3, 0.1% phosphate-free BSA • Quantitation Method: Quantitation of Fluorescein-AMP-IMAP • Pre-Incub. Time/Temp: 15 minutes @25° C. • Incubation Time/Temp: 30 minutes @25° C.
(§3) IC50 values are determined by a non-linear, least squares regression analysis using MathIQ™ (ID Business Solutions Ltd., UK). […]

Phosphodiesterase PDE7B = target: T2, Phosphodiesterase PDE7B (Homo sapiens, UniProt Q9NP56); assay: Phosphodiesterase PDE7B enzyme assay; type: biochemical; details: N=2, Example 3
T2 construct: host or cells: insect Sf9 cells
T2 sequence (Q9NP56 whole entry): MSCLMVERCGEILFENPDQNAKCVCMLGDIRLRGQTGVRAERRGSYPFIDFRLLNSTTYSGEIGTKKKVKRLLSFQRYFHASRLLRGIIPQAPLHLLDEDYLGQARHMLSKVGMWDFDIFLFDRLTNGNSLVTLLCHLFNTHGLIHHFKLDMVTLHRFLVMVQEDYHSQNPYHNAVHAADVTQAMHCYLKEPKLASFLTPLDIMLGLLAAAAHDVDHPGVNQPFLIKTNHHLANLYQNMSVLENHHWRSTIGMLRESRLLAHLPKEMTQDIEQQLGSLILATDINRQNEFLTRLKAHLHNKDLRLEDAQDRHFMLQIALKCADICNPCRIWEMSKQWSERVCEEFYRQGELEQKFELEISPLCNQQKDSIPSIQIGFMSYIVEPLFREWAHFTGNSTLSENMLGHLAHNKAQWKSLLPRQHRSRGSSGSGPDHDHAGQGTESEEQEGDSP
Source text: as §1, §2, §3

[1] = Ocular instillation studies; type: in vivo; details: preclinical ocular instillation studies
Phosphodiesterase PDE5A = target: T3, Phosphodiesterase PDE5A (Homo sapiens, UniProt O76074); assay: Phosphodiesterase PDE5A enzyme assay; type: biochemical; details: N=2, Example 3
T3 construct: host or cells: insect Sf9 cells
Source text: as §1
Phosphodiesterase PDE1A; Phosphodiesterase PDE5A; and Phosphodiesterase PDE9A2: • Source: Human recombinant insect Sf9 cells • Substrate: 0.10 μM […] • Vehicle: 1.00% DMSO • Significance Crit.: ≥50% of max stimulation or inhibition • Incubation Buffer: 10 mM Tris-HCl, pH 7.2, 10 mM MgCl2, 0.05% NaN3, 0.1% phosphate-free BSA • Quantitation Method: Quantitation of Fluorescein-GMP-IMAP • Pre-Incub. Time/Temp: 15 minutes @25° C. • Incubation Time/Temp: 30 minutes @25° C.
IC50 values are determined by a non-linear, least squares regression analysis using MathIQ™ (ID Business Solutions Ltd., UK). […] Where presented, the Hill coefficient (nH), defining the slope of the competitive binding curve, is calculated using MathIQ™. […]

[2] = Plasma and ear skin concentration in IMQ model, day 6; type: in vivo, BALB/c mice; details: day 6, post 2h treatment, topical 0.5%
Method: On day 6, blood is collected by retro-orbital bleeding under isoflurane anesthesia prior to euthanasia. Blood is collected in K2-EDTA tubes and plasma is separated and stored at −80° C. for further analysis (for test item concentration).
On day 6, post 2h treatment, plasma and ear skin concentration of animals treated with the compound of Formula (I) are estimated. […] The concentration in the ear skin is close to 976-fold more than the plasma levels.

[3] = system: PMA-induced ear thickening and ear weight gain; assay: PMA-induced ear inflammation model (Example 1); type: in vivo, BALB/c; details: 6 hours post PMA, topical 0.5% w/v on both ears 30 min before and 15 min after PMA
Method: Animals in group 2, 3, and 4 receive dexamethasone, Crisaborole and the compound of Formula (I), respectively (as a solution in acetone and ethanol by 1:1 ratio), 30 min before PMA challenge, on both ears.
• −24 hr—Randomization (body weight based) • −30 min—Treatment Topical • 0 min—Disease Induction PMA application • 15 min—Treatment Topical • 6 hr—Skin Thickness, Skin Collection (Cohort 1) • 24 hr—Skin Thickness, Skin Collection (Cohort 2)
5 μg/20 μl/right ear and 5 μg/20 μl/left ear (2.5 μg/10 μl in anterior and posterior surface of both ears)
Phorbol 12-myristate 13-acetate (PMA) is formulated in acetone at a concentration of 250 μg/ml. This working solution is applied topically to the anterior and posterior surface of both the ear (10 μl each side).
Ear thickness (both right and left ear): at −1 hr (before PMA challenge), 6 hr and 24 hrs post PMA challenge.
At 6 hr and 24 hrs, respective cohort of animals are euthanized, and ear tissues are collected. […] Left ears are collected and preserved in 10% NBF for Histopathology.

Phosphodiesterase PDE8A1 = target: T4, Phosphodiesterase PDE8A1 (Homo sapiens, UniProt O60658); assay: Phosphodiesterase PDE8A1 enzyme assay; type: biochemical; details: N=2, Example 3
T4 construct: host or cells: insect Sf9 cells
T4 sequence (O60658 whole entry): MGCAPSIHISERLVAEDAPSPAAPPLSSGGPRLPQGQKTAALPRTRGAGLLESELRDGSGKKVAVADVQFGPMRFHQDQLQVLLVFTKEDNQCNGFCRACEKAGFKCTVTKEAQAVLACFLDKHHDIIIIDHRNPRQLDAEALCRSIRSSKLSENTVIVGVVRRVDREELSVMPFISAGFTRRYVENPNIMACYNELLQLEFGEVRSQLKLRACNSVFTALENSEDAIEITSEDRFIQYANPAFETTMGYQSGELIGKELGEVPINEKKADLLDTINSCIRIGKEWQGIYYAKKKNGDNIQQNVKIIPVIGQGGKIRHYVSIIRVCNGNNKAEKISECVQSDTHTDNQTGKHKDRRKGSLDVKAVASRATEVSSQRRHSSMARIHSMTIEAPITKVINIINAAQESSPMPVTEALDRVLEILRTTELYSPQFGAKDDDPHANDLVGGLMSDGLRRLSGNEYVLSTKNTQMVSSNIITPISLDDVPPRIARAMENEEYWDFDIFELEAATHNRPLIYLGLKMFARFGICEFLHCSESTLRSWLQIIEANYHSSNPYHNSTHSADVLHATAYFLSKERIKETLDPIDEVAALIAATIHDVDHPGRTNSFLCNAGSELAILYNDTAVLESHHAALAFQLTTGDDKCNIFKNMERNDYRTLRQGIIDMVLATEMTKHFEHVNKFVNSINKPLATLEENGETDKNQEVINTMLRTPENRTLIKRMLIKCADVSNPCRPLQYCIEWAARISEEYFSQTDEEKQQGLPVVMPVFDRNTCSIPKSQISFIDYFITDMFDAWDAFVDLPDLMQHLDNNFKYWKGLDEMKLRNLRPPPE
Source text: as §1, §2, §3

Phosphodiesterase PDE3A = target: T5, Phosphodiesterase PDE3A (Homo sapiens, UniProt Q14432); assay: Phosphodiesterase PDE3A enzyme assay; type: biochemical; details: N=2, Example 3
T5 construct: host or cells: insect Sf9 cells
T5 sequence (Q14432 whole entry): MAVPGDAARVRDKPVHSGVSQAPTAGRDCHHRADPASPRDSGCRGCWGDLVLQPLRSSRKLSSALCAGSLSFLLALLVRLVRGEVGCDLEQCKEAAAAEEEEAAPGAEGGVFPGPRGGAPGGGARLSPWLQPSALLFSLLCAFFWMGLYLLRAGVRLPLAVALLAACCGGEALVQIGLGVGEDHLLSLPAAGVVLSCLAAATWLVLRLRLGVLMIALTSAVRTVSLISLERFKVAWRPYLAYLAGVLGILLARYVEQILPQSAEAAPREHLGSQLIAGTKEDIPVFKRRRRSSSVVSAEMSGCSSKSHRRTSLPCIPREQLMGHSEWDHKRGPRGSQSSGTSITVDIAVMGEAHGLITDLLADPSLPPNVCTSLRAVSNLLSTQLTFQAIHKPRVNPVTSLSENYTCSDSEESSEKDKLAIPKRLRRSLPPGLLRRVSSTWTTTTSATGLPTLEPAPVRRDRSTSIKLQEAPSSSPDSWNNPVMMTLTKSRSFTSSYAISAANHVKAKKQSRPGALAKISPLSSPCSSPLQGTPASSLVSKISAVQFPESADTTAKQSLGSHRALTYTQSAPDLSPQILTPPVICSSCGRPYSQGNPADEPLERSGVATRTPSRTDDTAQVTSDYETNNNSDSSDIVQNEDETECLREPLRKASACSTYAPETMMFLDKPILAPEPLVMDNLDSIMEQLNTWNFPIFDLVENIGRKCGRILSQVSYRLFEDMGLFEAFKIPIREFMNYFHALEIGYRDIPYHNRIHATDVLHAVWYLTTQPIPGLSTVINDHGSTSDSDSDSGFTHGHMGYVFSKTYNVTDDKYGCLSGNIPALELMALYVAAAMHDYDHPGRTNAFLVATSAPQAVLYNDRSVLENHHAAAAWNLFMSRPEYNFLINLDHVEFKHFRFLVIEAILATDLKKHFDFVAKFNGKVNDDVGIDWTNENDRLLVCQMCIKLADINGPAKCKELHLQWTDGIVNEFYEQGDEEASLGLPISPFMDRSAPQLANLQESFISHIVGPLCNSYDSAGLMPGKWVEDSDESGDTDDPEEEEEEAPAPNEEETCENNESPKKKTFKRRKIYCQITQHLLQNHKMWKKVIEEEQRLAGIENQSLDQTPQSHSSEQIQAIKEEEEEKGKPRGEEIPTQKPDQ
Source text: as §1, §2, §3

T1 sequence (Q13946 whole entry): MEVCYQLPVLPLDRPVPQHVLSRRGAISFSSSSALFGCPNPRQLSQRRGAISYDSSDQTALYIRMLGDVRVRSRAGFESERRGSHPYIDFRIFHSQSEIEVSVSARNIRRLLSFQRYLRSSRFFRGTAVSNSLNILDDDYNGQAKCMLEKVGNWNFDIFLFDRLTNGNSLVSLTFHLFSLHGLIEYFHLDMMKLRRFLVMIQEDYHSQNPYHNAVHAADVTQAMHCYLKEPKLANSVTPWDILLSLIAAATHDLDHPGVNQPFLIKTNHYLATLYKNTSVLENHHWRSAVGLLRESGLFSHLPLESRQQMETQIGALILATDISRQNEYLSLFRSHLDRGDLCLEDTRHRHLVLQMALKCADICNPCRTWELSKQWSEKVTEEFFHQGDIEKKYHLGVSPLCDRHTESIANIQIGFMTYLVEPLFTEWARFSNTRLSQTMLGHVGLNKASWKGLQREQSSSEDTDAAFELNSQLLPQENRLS

inhibition at 10 µM (Phosphodiesterase PDE7A): 7% | inhibition at 10 µM (Phosphodiesterase PDE7B): -1% | inhibition at 10 µM (Phosphodiesterase PDE5A): 27% | Kp ([2]; BALB/c, mouse, ear skin / plasma, read-out: Concentration in the ear skin relative to plasma levels): ~976 | Concentrations in plasma and ear skin [2]: Significant concentrations | inhibition at 10 µM (Phosphodiesterase PDE8A1): 0% | inhibition at 10 µM (Phosphodiesterase PDE3A): 6%
SMILES: CNc1nc(Nc2ccccc2)nc(OCC(F)(F)C(F)F)n1 [compound of Formula (I), N^2-methyl-N^4-phenyl-6-(2,2,3,3-tetrafluoropropoxy)-1,3,5-triazine-2,4-diamine]
Tolerability on ocular instillation [1]: well tolerated | PMA-induced ear thickening [3]: prevents or reduces | PMA-induced ear weight gain [3]: prevents or reduces
